In the supplement of paper PMC10307832:

Tests used:
Test in all cases: relative viability (nuclei count vs DMSO), 5 days (fraction); higher = more cells survive
HCC-44 = tested on: HCC-44
Method in brief: (§1)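 Dosing by pin tool came one day after lung cancer cell lines were seeded in 1536-well plates, using either one drug or a fixed anchor-drug dose plus five library-drug doses (not always all listed) in √10 steps. After 5 days, nuclei were counted on 4× images. Relative viability is treated-well nuclei count divided by vehicle-well nuclei count, and values are medians of duplicate plates.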

NCI-H358 = tested on: NCI-H358
Method in brief: as §1

EPLC-272H = tested on: EPLC-272H
Method in brief: as §1

ABC-1 = tested on: ABC-1
Method in brief: as §1

COR-L 105 = tested on: COR-L 105
Method in brief: as §1

NCI-H647 = tested on: NCI-H647
Method in brief: as §1

COR-L23 = tested on: COR-L23
Method in brief: as §1

NCI-H520 = tested on: NCI-H520
Method in brief: as §1

NCI-H1975 = tested on: NCI-H1975
Method in brief: as §1

201T = tested on: 201T
Method in brief: as §1

NCI-H727 = tested on: NCI-H727
Method in brief: as §1

Question: Which relative viability (HCC-44; first compound 0.08 µM) does the source give for `O=c1[nH]c2ccccc2n1C1CCN(CCCC(c2ccc(F)cc2)c2ccc(F)cc2)CC1` [Pimozide] + Nc1ncn([C@H]2C[C@H](O)[C@@H](CO)O2)c(=O)n1 [Decitabine] (partner 2 µM) here?
Answer: Its relative viability is 1.01.

Question: What about the relative viability (HCC-44; first compound 0.253 µM) of the same molecule?
Answer: Its relative viability is 0.983.

Question: What about the relative viability (HCC-44; first compound 0.8 µM) of the same molecule?
Answer: The relative viability was 0.843.

Question: And the relative viability (HCC-44; first compound 2.53 µM)?
Answer: Its relative viability is 0.935.

Question: And the relative viability (HCC-44; first compound 8 µM)?
Answer: Its relative viability is 0.919.

Question: And the relative viability (NCI-H358; first compound 0.08 µM)?
Answer: The relative viability was 0.196.

Question: And the relative viability (NCI-H358; first compound 0.253 µM)?
Answer: The relative viability was 0.219.

Question: And the relative viability (NCI-H358; first compound 0.8 µM)?
Answer: The relative viability was 0.315.

Question: And the relative viability (NCI-H358; first compound 2.53 µM)?
Answer: Its relative viability is 0.213.

Question: What about the relative viability (NCI-H358; first compound 8 µM) of the same molecule?
Answer: The relative viability was 0.228.

Question: And the relative viability (EPLC-272H; first compound 0.08 µM)?
Answer: The relative viability was 0.309.

Question: What about the relative viability (EPLC-272H; first compound 0.253 µM) of the same molecule?
Answer: The relative viability was 0.362.

Question: And the relative viability (EPLC-272H; first compound 0.8 µM)?
Answer: Its relative viability is 0.33.

Question: And the relative viability (EPLC-272H; first compound 2.53 µM)?
Answer: The relative viability was 0.32.

Question: What about the relative viability (EPLC-272H; first compound 8 µM) of the same molecule?
Answer: Its relative viability is 0.318.

Question: What about the relative viability (ABC-1; first compound 0.08 µM) of the same molecule?
Answer: The relative viability was 1.18.

Question: And the relative viability (ABC-1; first compound 0.253 µM)?
Answer: The relative viability was 0.831.

Question: What about the relative viability (ABC-1; first compound 0.8 µM) of the same molecule?
Answer: The relative viability was 1.22.

Question: What about the relative viability (ABC-1; first compound 2.53 µM) of the same molecule?
Answer: Its relative viability is 1.08.

Question: What about the relative viability (ABC-1; first compound 8 µM) of the same molecule?
Answer: Its relative viability is 1.02.

Question: What about the relative viability (COR-L 105; first compound 0.08 µM) of the same molecule?
Answer: The relative viability was 0.49.

Question: And the relative viability (COR-L 105; first compound 0.253 µM)?
Answer: Its relative viability is 0.702.

Question: What about the relative viability (COR-L 105; first compound 0.8 µM) of the same molecule?
Answer: The relative viability was 0.623.

Question: And the relative viability (COR-L 105; first compound 2.53 µM)?
Answer: Its relative viability is 0.659.

Question: What about the relative viability (COR-L 105; first compound 8 µM) of the same molecule?
Answer: The relative viability was 0.701.

Question: What about the relative viability (NCI-H647; first compound 0.08 µM) of the same molecule?
Answer: The relative viability was 0.37.

Question: And the relative viability (NCI-H647; first compound 0.253 µM)?
Answer: Its relative viability is 0.363.

Question: What about the relative viability (NCI-H647; first compound 0.8 µM) of the same molecule?
Answer: The relative viability was 0.392.

Question: What about the relative viability (NCI-H647; first compound 2.53 µM) of the same molecule?
Answer: Its relative viability is 0.442.

Question: And the relative viability (NCI-H647; first compound 8 µM)?
Answer: Its relative viability is 0.508.

Question: What about the relative viability (COR-L23; first compound 0.08 µM) of the same molecule?
Answer: The relative viability was 0.409.

Question: What about the relative viability (COR-L23; first compound 0.253 µM) of the same molecule?
Answer: Its relative viability is 0.446.

Question: And the relative viability (COR-L23; first compound 0.8 µM)?
Answer: The relative viability was 0.411.

Question: What about the relative viability (COR-L23; first compound 2.53 µM) of the same molecule?
Answer: The relative viability was 0.424.

Question: And the relative viability (COR-L23; first compound 8 µM)?
Answer: The relative viability was 0.495.

Question: What about the relative viability (NCI-H520; first compound 0.08 µM) of the same molecule?
Answer: Its relative viability is 0.455.

Question: What about the relative viability (NCI-H520; first compound 0.253 µM) of the same molecule?
Answer: Its relative viability is 0.428.

Question: What about the relative viability (NCI-H520; first compound 0.8 µM) of the same molecule?
Answer: Its relative viability is 0.453.

Question: What about the relative viability (NCI-H520; first compound 2.53 µM) of the same molecule?
Answer: The relative viability was 0.519.

Question: And the relative viability (NCI-H520; first compound 8 µM)?
Answer: The relative viability was 0.613.

Question: And the relative viability (NCI-H1975; first compound 0.08 µM)?
Answer: The relative viability was 0.347.

Question: And the relative viability (NCI-H1975; first compound 0.253 µM)?
Answer: Its relative viability is 0.387.

Question: And the relative viability (NCI-H1975; first compound 0.8 µM)?
Answer: The relative viability was 0.391.

Question: What about the relative viability (NCI-H1975; first compound 2.53 µM) of the same molecule?
Answer: Its relative viability is 0.368.

Question: And the relative viability (NCI-H1975; first compound 8 µM)?
Answer: Its relative viability is 0.419.

Question: What about the relative viability (201T; first compound 0.08 µM) of the same molecule?
Answer: Its relative viability is 0.827.

Question: What about the relative viability (201T; first compound 0.253 µM) of the same molecule?
Answer: Its relative viability is 0.846.

Question: What about the relative viability (201T; first compound 0.8 µM) of the same molecule?
Answer: The relative viability was 0.829.

Question: What about the relative viability (201T; first compound 2.53 µM) of the same molecule?
Answer: Its relative viability is 0.844.

Question: What about the relative viability (201T; first compound 8 µM) of the same molecule?
Answer: The relative viability was 0.711.

Question: And the relative viability (NCI-H727; first compound 0.08 µM)?
Answer: Its relative viability is 0.834.

Question: And the relative viability (NCI-H727; first compound 0.253 µM)?
Answer: The relative viability was 0.588.

Question: What about the relative viability (NCI-H727; first compound 0.8 µM) of the same molecule?
Answer: Its relative viability is 0.933.

Question: And the relative viability (NCI-H727; first compound 2.53 µM)?
Answer: Its relative viability is 0.98.

Question: And the relative viability (NCI-H727; first compound 8 µM)?
Answer: The relative viability was 0.856.
